Experimental data: patent publication US20090111846A1, “PHARMACEUTICAL COMPOSITIONS COMPRISING DEXTROMETHORPHAN AND QUINIDINE FOR THE TREATMENT OF DEPRESSION, ANXIETY, AND NEURODEGENERATIVE DISORDERS” (Avanir Pharmaceuticals, priority 2006, published 2009)
“Also recorded” adds a separate entry of the source.

How the values were obtained:
[1] = Huntington's disease, N=11; cited from earlier work
[2] = ALS, detectable in only 1 of 7 patients, 4.8 to 10 mg/kg/day, at 3 months; cited from earlier work
[3] = cited from earlier work
[4] = tested on: glutamate-induced neurotoxicity in neocortical cell cultures, in vitro hypoxia and glucose deprivation models; conditions: cited from earlier work
[5] = tested on: amyotrophic lateral sclerosis; conditions: cited from earlier work
[6] = tested on: methotrexate (MTX) neurotoxicity; conditions: oral 1-2 mg/kg, N=5, all patients; cited from earlier work
[7] = tested on: perioperative brain injury; conditions: cited from earlier work
[8] = single oral dose 30 mg, extensive metabolizers (N=5); cited from earlier work
[9] = tested on: neocortical ischemic neuronal damage and edema; conditions: cited from earlier work
[10] = Dextromethorphan with quinidine in healthy subjects (Pope et al.); type: in vivo, human; conditions: from 68-fold concentration in brain and plasma levels with quinidine
Method: The use of quinidine to inhibit the rapid first-pass metabolism of dextromethorphan allows the attainment of potential neuroprotective drug levels in the brain. […] This dose, 30 mg twice daily (BID) given with 60 mg BID dextromethorphan, increased plasma levels of dextromethorphan 25-fold. In this manner, coadministration of 30 mg of quinidine BID with dextromethorphan in the three unsuccessful amyotrophic lateral sclerosis neuroprotection trials could have readily transformed the inadequate dextromethorphan doses into standard neuroprotective plasma concentrations.
Given the 68-fold concentration of dextromethorphan in brain found in neurosurgery patients (Steinberg et al. J Neurosurg. 1996; 84:860-6), an estimated brain concentration of 13,100 ng/g (about 48 microM) is achievable. This corresponds to neuroprotective levels established in preclinical in vitro (Choi et al. J Pharmacol Exp Ther. 1987; 242:713-20) and in vivo (Steinberg et al. Neurol Res. 1993; 15:174-80) studies.
A reasonable concern is that the achievement of higher dextromethorphan plasma concentrations, as well as the use of quinidine, may be associated with an increased occurrence of adverse events, particularly in patients with neurological disorders. […] No difference was found between the extensive and poor metabolizer phenotypes. […]

[11] = cited from earlier work; remark: listed apart in the source
[12] = in vivo
Method: Dosages of other antioxidants will vary with the antioxidant, and are determined on an individual basis.

## COc1ccc2c(c1)[C@]13CCCCC1[C@H](C2)N(C)CC3 (single isomer, unassigned; (+)) [dextromethorphan, (+)-3-methoxy-N-methylmorphinan]
[1]
  median peak tolerated dose: 410 mg/day
[2]
  steady-state plasma level (Cmax): 190 ng/mL
[3]; even at the highest levels, symptoms tolerable and reversible
  adverse reactions: no patient suffered severe adverse reactions
[3]; neurosurgery patients, maximum 9.64 mg/kg oral dose
  maximum level in serum: 1514 ng/mL
[3]; neurosurgery patients
  maximum level in brain: 92,700 ng/g
[4]
  concentration giving almost complete protection: 100 µM
[5]; Askmark et al., N=14, 150 mg/day 12-week crossover, then 300 mg/day open
  clinical or neurophysiological parameter improvements: no clinical or neurophysiological parameter
[5]; Blin et al., N=49, 1.5 mg/kg/day, 1-year
  rate of disease progression vs placebo: no significant differences in rate of disease progression
[5]; Gredal et al., N=45, 150 mg/day
  12-month survival: did not demonstrate an improvement in 12-month survival
[6]
  neurological symptoms of MTX neurotoxicity: completely resolved neurological symptoms; also recorded: completely resolved neurological deficits
[7]; oral 36-38 mg/kg/day, children, cardiac surgery
  levels in CSF: 285 to 939 ng/mL
[7]; oral 36-38 mg/kg/day
  adverse events: not observed
[7]; p=0.02, N=13
  postoperative EEG sharp waves: significantly decreased postoperative EEG sharp waves
[7]; vs. 0.256 cm placebo, p=0.06
  third ventricle postoperative enlargement, diameter: 0.112 cm
[7]; vs. 2/7 placebo
  rate of postoperative periventricular white matter lesions: 0/6
[8]
  dextromethorphan in plasma: not detectable or at the limits of detection
[9]; animal models of cerebral ischemia
  neuroprotective plasma (serum) levels: ≥ 500 ng/mL
[9]; conversion of 10,000 ng/g
  neuroprotective brain levels: about 37 microM
[10]
  estimated brain concentration achievable: 13,100 ng/g and about 48 microM
[11]; 120 mg daily dextromethorphan (60 mg BID) with quinidine (30 mg BID), steady state
  AUC0-12: 1963 ± 609 ng·h/mL
[11]; 120 mg daily dextromethorphan (60 mg BID) with quinidine (30 mg BID)
  steady state peak plasma levels: 192 ± 45 ng/mL

## CNCCC(Oc1ccc(C(F)(F)F)cc1)c1ccccc1 (stereo not drawn) [fluoxetine]
[12]
  increase of dextromethorphan concentrations in the blood: effective in increasing dextromethorphan concentrations in the blood of some people

## C=C[C@H]1C[N@]2CC[C@@H]1C[C@@H]2[C@@H](O)c1ccnc2ccc(OC)cc12 [quinidine]
[11]; human, in vivo
  lowest dose needed to maximally suppress O-demethylation of dextromethorphan: about 30 mg
[11]; quinidine 30 mg BID given with 60 mg BID dextromethorphan
  increase of plasma levels of dextromethorphan: 25 fold
